Laboratory results published in patent US6376427B1, “Herbicidal compositions” (Sumitomo Chemical Company, Limited, priority 1998, dated 2002).

Experiments:
giant foxtail [1] = experiment: Test Example 1: post-emergence foliar spray, herbicidal activity; format: in vivo, giant foxtail (Setaria faberi); conditions: sprayed on 23-day plants, examined 5 days after application, index 0 to 10
Method: (§1) Plastic pots each having an area of 26.5×19cm^2 and a depth of 10 cm were filled with upland soil, and then seeded with wheat and giant foxtail. The wheat was grown for 14 days and t he giant foxtail was grown for 23 days in a greenhouse. An emulsifiable concentrate compound A which had been obtained by well mixing 10 parts of compound A, 14 parts of polyoxyethylene styryl phenyl ether, 6 parts of calcium dodecylbenzenesulfonate, 35 parts of xylene, and 35 parts of cyclohexanone, an emulsifiable concentrate of flufenacet which had been obtained by well mixing 10 parts of flufenacet, 14 parts of polyoxyethylene styryl phenyl ether, 6 parts of calcium dodecylbenzenesulfonate, 35 parts of xylene, and 35 parts of cyclohexanone, and a mixture of the emulsifiable concentrate of compound A and the emulsifiable concentrate of flufenacet were independently diluted in their prescribed amounts with water. Each dilution was uniformly sprayed over the plants with a small sprayer. After the application, the plants were grown in the greenhouse for 5 days, and the herbicidal activity and safety to wheat were then examined.

wheat = experiment: Test Example 1: safety to wheat (phytotoxicity); format: in vivo, wheat (Triticum aestivum); conditions: dosage 10 g/ha; sprayed on 14-day wheat; examined 5 days after application
Method: as §1

giant foxtail [2] = experiment: Test Example 2: post-emergence foliar spray, herbicidal activity; format: in vivo, giant foxtail (Setaria faberi); conditions: sprayed on 22-day plants, examined 5 days after application, index 0 to 10
Method: (§2) Plastic pots each having an area of 26.5×19 cm^2 and a depth of 7 cm were filled with upland soil, and then seeded with soybean, corn and giant foxtail. The corn was grown for 13 days, and the soybean and giant foxtail were grown for 22 days in a greenhouse. An emulsifiable concentrate compound A which had been obtained by well mixing 10 parts of compound A, 14 parts of polyoxyethylene styryl phenyl ether, 6 parts of calcium dodecylbenzenesulfonate, 35 parts of xylene, and 35 parts of cyclohexanone, an emulsifiable concentrate of flufenacet which had been obtained by well mixing 10 parts of flufenacet, 14 parts of polyoxyethylene styryl phenyl ether, 6 parts of calcium dodecylbenzenesulfonate, 35 parts of xylene, and 35 parts of cyclohexanone, and a mixture of the emulsifiable concentrate of compound A and the emulsifiable concentrate of flufenacet were independently diluted in their prescribed amounts with water. Each dilution was uniformly sprayed over the plants with a small sprayer. After the application, the plants were grown in the greenhouse for 5 days, and the herbicidal activity and safety to soybean and corn were then examined.

soybean = experiment: Test Example 2: safety to soybean (phytotoxicity); format: in vivo; conditions: dosage 40 g/ha; sprayed on 22-day soybean; examined 5 days after application
Method: as §2

corn = experiment: Test Example 2: safety to corn (phytotoxicity); format: in vivo; conditions: dosage 40 g/ha; sprayed on 13-day corn; examined 5 days after application
Method: as §2

Row | SMILES | Herbicidal activity Giant foxtail (giant foxtail [1]; dosage 10 g/ha) | Phytotoxicity Wheat (wheat) | Herbicidal activity Giant foxtail (giant foxtail [2]; dosage 40 g/ha) | Phytotoxicity Soybean (soybean) | Phytotoxicity Corn (corn) | Herbicidal activity Giant foxtail (giant foxtail [1]; dosage 240 g/ha) | Herbicidal activity Giant foxtail (giant foxtail [2]; dosage 400 g/ha)
1 | CCOC(=O)COc1cc(-n2ncc(C(F)(F)F)c(C)c2=O)c(F)cc1Cl [Compound A] | 3 | No harm | 4 | No harm | No harm |  | 
2 | CC(C)N(C(=O)COc1nnc(C(F)(F)F)s1)c1ccc(F)cc1 [Flufenacet, 4-fluoro-N-isopropyl-2-(5-trifluoromethyl-,1,3,4-thiadiazol-2-yloxy)acetanilide, reference compound] |  |  |  |  |  | 2 | 2
